Bridges are numbered along the chain shown (N, C = ends). Roman numbers before positions name the chains, in order. Where no end group is shown, it is not given here. [ ]: non-standard residue; d: D form. The star is where a group is joined. mini PEG = minipeg spacer; Nle = CCCC[C@H](N)C(=O)O; Octanoyl = CCCCCCCC(=O)*; mp4 = 4 mini PEG linker; Dap = NC[C@H](N)C(=O)O
What was measured:
[1] = test system: fracture callus of fractured femur; assay: Femur fracture model, microCT of the fracture callus (BV/TV, BV, TbTh, TbSp); type: in vivo, Swiss Webster mice
Excerpt: All in vivo data included herein are from Swiss Webster mice. […] 1×concentration represents 1 nmol/day, 10× represents 10 nmol/day, 100×represents 100 nmol/day and most studies have an n of 5.
The term “BV/TV” means the bone volume divided by total volume of the 100 thickest micro CT slices of the fracture callus.
The term “TbTh” means the trabecular thickness of the 100 thickest micro CT slices of the fracture callus.
The term “[…]” means the overall bone volume of the 100 thickest micro CT slices of the fracture callus.
The term “TbSp” means the spacing between the trabecula in the 100 thickest micro CT slices of the fracture callus.
The targeted conjugates were synthesized using standard Fmoc solid-phase peptide synthesis, as described above. To ensure the conjugates' activity, mouse pre osteo-blast (MCTC3-1) cells were treated with the targeted and untargeted compounds for three days at concentrations from 1 pM to 100 nM. After three days of treatment, the cells were harvested, and the ribonucleic acid (RNA) was purified from the cells. Expression levels of ALP, RUNx2, OSX, osteo-pontin (OPN), collagen 1A (Col-1A), OPG, RANKL, scle-rostin gene (SOST), and OC were quantified via quantitative reverse transcription polymerase chain reaction (RT-qPCR). Once the biological activity of the conjugates was confirmed, they were tested in vivo in a fracture model. Aseptic surgical techniques were used to place a 23-gage needle as in intramedullary nail in the femur of anesthetized, 12-week-old Swiss Webster mice for internal fixation before fracture. Femur fractures were induced using a drop weight fracture device from RISystem. The mice received buprenorphine for three days post fracture. […] Fracture healing was assessed using microCT (Scanco Medical Ag). Morphometric parameters were quantified in the 100 widest slices of the fracture callus. Trabecular thickness (TbTh), trabecular spacing (TbSp), total volume (TV), and volume of calcified callus (BV) were calculated. Fractured femurs were tested for strength in a four-point bend to failure using an Electro Force TestBench (TA Instruments). Lower supports were 10 mm apart on the anterior face of the femur in contact with the proximal and distal diaphysis. Upper supports were 4 mm apart and spanned the entire fracture callus on the diaphysis. Force was applied from the posterior face of the femur with a displacement rate of 0.3 mm/sec. Peak load, yield load, stiffness, displacement post yield, work to fracture, and deformation data were generated. Statistical analysis was performed using a two-way analysis of variance (ANOVA) and a Tukey post-hoc analysis with significance reported at the 95% confidence level. All animal experiments were performed in accordance with protocols approved by Purdue University's Institutional Animal Care and Use Committee (IACUC).

healed fractured femur = assay: Femur fracture model, postmortem four-point bend of the healed femur; type: in vivo, Swiss Webster mice
Excerpt: All in vivo data included herein are from Swiss Webster mice. All mice received an osteotomy on their right femur and received subcutaneous drug administration daily for either 2, 3 or 4 weeks, as indicated, for each compound. 1×concentration represents 1 nmol/day, 10× represents 10 nmol/day, 100×represents 100 nmol/day and most studies have an n of 5.
The term “Peak Load” means a postmortem 4 point bend of the healed femur. Peak load represents the maximum force the healed femur withstood before it refractured.
The targeted conjugates were synthesized using standard Fmoc solid-phase peptide synthesis, as described above. To ensure the conjugates' activity, mouse pre osteo-blast (MCTC3-1) cells were treated with the targeted and untargeted compounds for three days at concentrations from 1 pM to 100 nM. After three days of treatment, the cells were harvested, and the ribonucleic acid (RNA) was purified from the cells. Expression levels of ALP, RUNx2, OSX, osteo-pontin (OPN), collagen 1A (Col-1A), OPG, RANKL, scle-rostin gene (SOST), and OC were quantified via quantitative reverse transcription polymerase chain reaction (RT-qPCR). Once the biological activity of the conjugates was confirmed, they were tested in vivo in a fracture model. Aseptic surgical techniques were used to place a 23-gage needle as in intramedullary nail in the femur of anesthetized, 12-week-old Swiss Webster mice for internal fixation before fracture. Femur fractures were induced using a drop weight fracture device from RISystem. The mice received buprenorphine for three days post fracture. The mice were dosed subcutaneously each day for two weeks, three weeks, 4 weeks, or 17 days. Fracture healing was assessed using microCT (Scanco Medical Ag). Morphometric parameters were quantified in the 100 widest slices of the fracture callus. Trabecular thickness (TbTh), trabecular spacing (TbSp), total volume (TV), and volume of calcified callus (BV) were calculated. Fractured femurs were tested for strength in a four-point bend to failure using an Electro Force TestBench (TA Instruments). Lower supports were 10 mm apart on the anterior face of the femur in contact with the proximal and distal diaphysis. Upper supports were 4 mm apart and spanned the entire fracture callus on the diaphysis. Force was applied from the posterior face of the femur with a displacement rate of 0.3 mm/sec. Peak load, yield load, stiffness, displacement post yield, work to fracture, and deformation data were generated. Statistical analysis was performed using a two-way analysis of variance (ANOVA) and a Tukey post-hoc analysis with significance reported at the 95% confidence level. All animal experiments were performed in accordance with protocols approved by Purdue University's Institutional Animal Care and Use Committee (IACUC).

[2] = 4 weeks, various concentrations (1, 10 and in part 100 nmol/day), subcutaneous daily
[3] = 3 weeks, 0.1, 1 and 10 nmol daily subcutaneous
[4] = 2 weeks, various concentrations 1-100 nmol/day, subcutaneous daily
[5] = 3 weeks, 0.1, 1 and 10 nmol daily subcutaneous, n=5
[6] = 17 days, 1, 10 and 100 nmol daily subcutaneous, n=5
[7] = 1 μmol/kg, subcutaneous, every-other-day, CFW Swiss Webster mice

## pBMP9 D 10: peptide from BMP-9 knuckle epitope conjugated with D10, SEQ ID NO: 6/14, FIG. 27 (chain 1 CGGKVGKACCVPTKLSPISVLYK; chain 2 CGGKVGKACCVPTKLSPISVLVK; not fully specified (C-terminus); cysteine pairing not given here; also: the two chains differ at position 22 (Y vs V))
[1]; 4 weeks, 1, 10 and 100 nmol/day, subcutaneous daily
  bone volume (BV): dose dependent manner
[1]; [2]
  BV/TV: dose dependent manner

## CBM D10: collagen binding motif of osteopontin conjugated with 10 aspartate acids, SEQ ID NO: 9, FIG. 33
[1]; [3]
  BV/TV (bone density): dose dependent manner

## OGP-D10: osteogenic growth peptide conjugated with 10 aspartate acids, SEQ ID NO: 2, DDDDDDDDDDALKRQGRTL YGFGG (DDDDDDDDDDALKRQGRTLYGFGG; 10 aspartates)
[1]; [4]
  BV/TV: dose dependent manner
  TbSp: dose dependent manner
  TbTh: dose dependent manner

## Osteostatin_mp4_(D)E10: Osteostatin (PTHrP[107-139]) with 10 glutamic acids, SEQ ID NO: 23, FIG. 59
[1]; [3]
  BV/TV (bone density): raises bone density
[1]; [5]
  Tbth (trabecular thickness, bone quality): raises bone quality
Healed fractured femur; [5]
  Max load (bone strength): raises bone strength
  Stiffness: raises bone stiffness
  Work to fracture (bone strength): raises bone strength

## Preptin D10: Preptin conjugated with 10 aspartate acids, SEQ ID NO: 3, FIG. 29 (DVSTSQAVLPDDFPRYDDDDDDDDDD; 10 aspartates)
[1]; [4]
  BV/TV: dose dependent manner
  TbTh: dose dependent manner
  bone volume (BV): dose dependent manner

## QK_mp4_(D)E10: VEGF mimetic 15 amino acid peptide QK attached by mini-peg spacer to 10 glutamic acids, SEQ ID NO: 25 ({dE-dE-dE-dE-dE-dE-dE-dE-dE-dE-mp4}-KLTWQELYQLKYKGI)
[1]; [6]
  BV (bone volume, bone mineralization): raises bone mineralization
  BV/TV (bone density): raises bone density
Healed fractured femur; [6]
  Max load (bone strength): raises bone strength
  Work to fracture (bone strength): raises bone strength

## P4 D10: P4 (BMP-2 knuckle epitope fragment) conjugated with 10 aspartate acids, SEQ ID NO: 10 (HKIPKASSVPTELSAISTLYLDDDDDDDDDD; 10 aspartates)
[1]; [2]
  BV/TV: dose dependent manner

## B2A_mp4_(D)E10: two B2A branches (SEQ ID NO: 44) conjugated to e10 (D-glutamic acids), SEQ ID NO: 19, FIG. 35 (AIS[Nle]LYLDENEKVVLK; not fully specified; also: C-terminal Lys carries branching Lys-Ahx3-D-Glu10 moiety)
[1]; [3]
  BV/TV (bone density): raises bone density
[1]; [5]
  BV (bone volume, bone mineralization): raises bone mineralization
Healed fractured femur; [5]
  Max load (bone strength): raises bone strength
  Work to fracture (bone strength): raises bone strength

## targeted E738 conjugate: Src inhibitor E738 conjugated with D10 (10 aspartic acids, SEQ ID NO: 30), FIG. 4 (DDDDDDDDDD; not fully specified (C-terminus); also: conjugated to Src inhibitor E738)
[1]; [7]
  Trabecular Thickness at the fracture callus: significantly improved
  bone density (BV/TV) at the fracture callus: significantly improved

## JNK3_Mp4_(D)E10: 25-residue arrestin-3 peptide (JNK3) with mp4 linker and 10 glutamic acids, SEQ ID NO: 21, FIG. 49 (MGEKPGTRVFKKSSPNCKLTVYLGK; mp4 linker, 10 D-glutamic acids; SITE 25 C-term Lysine modified with 4 mini PEG linker-d(Glutamic acid)10 moiety)
[1]; [3]
  BV/TV (bone density): raises bone density
[1]; [5]
  BV (bone volume, bone mineralization): raises bone mineralization
Healed fractured femur; [5]
  Max load (bone strength): raises bone strength
  Work to fracture (bone strength): raises bone strength

## substance P D10: substance P with 4 mini PEG linker and conjugated with 10 aspartate acids, SEQ ID NO: 4/43, FIG. 32 (chain 1 {Asp-Asp-Asp-Asp-Asp-Asp-Asp-Asp-Asp-Asp-mp4}-RPKPQQFFGLM; chain 2 DDDDDDDDDD[mp4]RPKPQQFFGLM; ends and bridges not checked)
[1]; [2]
  BV/TV: dose dependent manner
Healed fractured femur; 4 weeks, 10× (10 nmol/day)
  peak load (max load) of healed femur: 30-35 Newtons

## MGF D10: Mechano-growth factor conjugated with 10 aspartate acids, SEQ ID NO: 11, DDDDDDDDDDYQPPSTNKNTKSQRRKGSTFEEHK (10 aspartates)
[1]; [2]
  BV/TV: dose dependent manner

## Ghrelin-D 10: Ghrelin D10 with Ser-3 replaced with diaminopropionic acid modified with an octanoyl group sidechain, SEQ ID NO: 5 (GS[Dap](Octanoyl)FLSPEHQKAQQRKESKKPPAKLQPRDDDDDDDDDD)
[1]; [2]
  BV/TV: dose dependent manner

## ODP D10: Osteopontin-derived peptide conjugated with 10 aspartate acids via 4 mini PEG, SEQ ID NO: 13 (DDDDDDDDDD[mini PEG][mini PEG][mini PEG][mini PEG]DVDVPDGRGDSLAYG)
[1]; 4 weeks, 1 nmol/day (1×)
  BV/TV: healing was reflected as BV/TV

B1: VIP D10: Vasoactive intestinal peptide conjugated with D10, SEQ ID NO: 8/17, FIG. 31 (peptide)
chain 1: HSDAVFTDNYTRLRKQMAVKKYLNSILNDDDDDDDDDD
chain 2: HSDAVFTDNYTRLRKQMAVKKYLNSILNDDDDDDDDDD
modifications: 10 aspartates
[1]; 4 weeks, 1 nmol/day (1×)
  BV/TV: healing was reflected as BV/TV
  TbTh: healing was reflected

B2: CNP D10: C-type Natriuretic peptide conjugated with 10 aspartate acids, SEQ ID NO: 7/16, FIG. 30 (peptide)
chain 1: DDDDDDDDDDGLSKGCFGLKLDRIGSMSGLGC
chain 2: DDDDDDDDDDGLSKGCFGLKLDRIGSMSGLGC
modifications: disulfide I:16-I:32, II:16-II:32; not fully specified
[1]; [2]
  BV/TV: dose dependent manner

From patent US12319721B2 (Purdue Research Foundation, priority 2018, dated 2025)
